How the values were obtained:
A. baumannii isolates [1] = experiment: Checkerboard testing (compound (I)/antibacterial agent interaction, FIC index); type: cell-based, Acinetobacter baumannii; conditions: Acinetobacter baumannii
Description: Checkerboard interaction studies were performed using 5 isolates from each of the sub-groups and time kill studies were performed using 3 isolates from each sub-group.
Checkerboards (20 isolates, 5 per sub-group) were prepared so as to contain multiple concentrations of compound (I) with different additional antibacterial agents (amikacin, gentamicin, colistin, meropenem and tobramycin) as follows:
Serial two-fold dilutions of the antimicrobial agents alone or in combination in wells of 96 well microtiter plates were inoculated with the appropriate inoculum so that each well contained approximately 4-5×10^4 CFU/ml. Plates were incubated at 35° C. for 16-20 hours. Combination concentrations were tested between 0.25×MIC and 2×MIC. Growth and sterility controls were also included in each plate.
Synergy, indifference and antagonism were calculated based upon the use of the fractional inhibitory concentration (FIC) indices as described by Pillai, Moellering & Eliopoulos (2005) whereby:
Synergism=FIC index of ≦0.5 Indifference=FIC index >1 but ≦4 Additivity >0.5 to 1 Antagonism=FIC index of >4
Checkerboard studies were carried out as described in General Procedures using twenty different A. baumannii isolates with 5 per sub-group of: susceptible, amikacin-resistant, colistin-resistant and meropenem-resistant.

A. baumannii isolates [2] = experiment: Time kill study (Example 4); type: cell-based, Acinetobacter baumannii; conditions: for Time to kill 99.9%: alone; for MIC: Acinetobacter baumannii, read-out: MIC
Description: A total of 12 isolates were tested (three per sub-group either susceptible, meropenem-resistant, amikacin-resistant or colistin-resistant). Two combinations were tested per isolate. Time-kill kinetics were performed by testing compound (I) and an additional antibacterial agent (amikacin, colistin and meropenem) individually at 1× and 4× the corresponding MIC of each antibacterial agent. […] Samples were taken at 0, 2, 4, 8 and 24 hours in order to determine colony forming units (CFU/mL).
Time-kill studies were carried out as described in General Procedures using combinations of compound (I) with amikacin, meropenem and colistin, respectively.

A. baumannii SAN strain = experiment: Bactericidal activity (time kill kinetics, Example 5); type: cell-based, Acinetobacter baumannii; conditions: alone at 2×MIC
Description: In addition, a second set of experiments involved the testing of compound(I)/additional antibacterial agent combinations of 2×/2×MIC. Samples were taken at 0, 3, 6 and 24 hours in order to determine colony forming units (CFU/mL).

A. baumannii SAN-94040 = experiment: Mouse model of A. baumannii pneumonia, Study 1: survival; type: in vivo, Acinetobacter baumannii
Description: The bacterial inoculum was prepared in order to obtain a suspension containing 10^8 CFU/mL of Acinetobacter baumannii in saline.
Experimentations were performed with six-week old female C3H/HeN mice (18-20 g, Breeding Centre JANVIER (Ile saint Genest Mayenne 53)) because of their particular susceptibility to Acinetobacter baumannii and the reproducibility of the results (inbreeding in the breed). Each mouse was individually marked and housed in cages containing five animals/cage under ventilated and controlled (temperature and humidity) atmosphere.
The mice were rendered transiently neutropenic by 2 intra-peritoneal (IP) injections of 150 μL of cyclophosphamide (Endoxan® 150 mg/kg) 4 (D-4) and 3 (D-3) days before the Acinetobacter baumannii inoculation (Day 0). This transient immunosuppression was sufficient to facilitate the development of the A. baumannii pneumonia while allowing the recovery of the neutrophil influx 2 (Day 2) days after inoculation in order to avoid or limit a systemic bacterial dissemination.
Mice were anesthetized by a mixture of oxygen and isoflurane. The bacterial inoculation was performed on Day 0 by intra-tracheal installation using an endotracheal catheter (50 μl of the suspension, thus 5.106 CFU). The positioning of the catheter in the trachea (instead of in the oesophagus) was checked by a “ring test”. The bacterial count in lungs was checked for all study groups by sacrificing one mouse immediately after inoculation.
Survival observations were assessed twice daily, up to 4 days post infection. The survival rates were compared with the Chi-square test or the Fisher exact test as appropriate. The survival curves were compared by the Kaplan-Meier method.
The aim of this experiment was to assess the […], with compound (I) via intra-peritoneal route at 200 mg/kg 3 times daily (every 8 hours) for 1 day alone and in combination with meropenem at 50 mg/kg 3 times daily (every 8 hours) for 1 day or with amikacin at 18 mg/kg 3 times daily (every 8 hours) for 1 day.

[3] = Study 1, 24 h after infection, doses as E210
[4] = Study 1, 48 h after infection, doses as E210
[5] = Study 1, 72 h after infection, doses as E210
[6] = Study 1, 96 h after infection, doses as E210

C[C@@H](O)[C@H]1C(=O)N2C(C(=O)O)=C(S[C@@H]3CN[C@H](C(=O)N(C)C)C3)[C@H](C)[C@H]12 [meropenem]
MIC (A. baumannii isolates [1]; A. baumannii 441142, colistin-resistant, read-out: MIC): 64 µg/mL | MIC (A. baumannii isolates [1]; A. baumannii 441160, colistin-resistant, read-out: MIC): 64 µg/mL | MIC (A. baumannii isolates [1]; A. baumannii 463996, colistin-resistant): 0.125 µg/mL | MIC (A. baumannii isolates [1]; A. baumannii 466936, colistin-resistant): 128 µg/mL | MIC (A. baumannii isolates [1]; A. baumannii 517303, colistin-resistant, read-out: MIC): 1 µg/mL | MIC (A. baumannii isolates [1]; A. baumannii 618649, meropenem-resistant, read-out: MIC): 64 µg/mL | MIC (A. baumannii isolates [1]; A. baumannii 625917, meropenem-resistant, read-out: MIC): 64 µg/mL | MIC (A. baumannii isolates [1]; A. baumannii 628760, susceptible, read-out: MIC): 0.25 µg/mL | MIC (A. baumannii isolates [1]; A. baumannii 637723, amikacin-resistant, read-out: MIC): 1 µg/mL | MIC (A. baumannii isolates [1]; A. baumannii 638115, amikacin-resistant, read-out: MIC): 2 µg/mL | MIC (A. baumannii isolates [1]; A. baumannii 650216, meropenem-resistant, read-out: MIC): 64 µg/mL | MIC (A. baumannii isolates [1]; A. baumannii 655932, amikacin-resistant, read-out: MIC): 16 µg/mL | MIC (A. baumannii isolates [1]; A. baumannii 661954, amikacin-resistant, read-out: MIC): 1 µg/mL | MIC (A. baumannii isolates [1]; A. baumannii 667848, meropenem-resistant, read-out: MIC): 32 µg/mL | MIC (A. baumannii isolates [1]; A. baumannii 668116, susceptible, read-out: MIC): 0.5 µg/mL | MIC (A. baumannii isolates [1]; A. baumannii 668239, amikacin-resistant, read-out: MIC): 16 µg/mL | MIC (A. baumannii isolates [1]; A. baumannii 670348, susceptible, read-out: MIC): 0.5 µg/mL | MIC (A. baumannii isolates [1]; A. baumannii 671050, meropenem-resistant, read-out: MIC): 32 µg/mL | MIC (A. baumannii isolates [1]; A. baumannii 672190, susceptible, read-out: MIC): 0.5 µg/mL | MIC (A. baumannii isolates [1]; A. baumannii 674340, susceptible, read-out: MIC): 0.5 µg/mL | Time to kill 99.9% (A. baumannii isolates [2]; AMK-R-1, 1xMIC): 5.2 h | Time to kill 99.9% (A. baumannii isolates [2]; AMK-R-1, 4xMIC): 3.2 h | Time to kill 99.9% (A. baumannii isolates [2]; AMK-R-2, 1xMIC): >24 h | Time to kill 99.9% (A. baumannii isolates [2]; AMK-R-2, 4xMIC): 6.1 h | Time to kill 99.9% (A. baumannii isolates [2]; AMK-R-3, 1xMIC): 3.6 h | Time to kill 99.9% (A. baumannii isolates [2]; AMK-R-3, 4xMIC): 1.8 h | MIC (A. baumannii isolates [2]; isolate AMK-R-1): 4 µg/mL | MIC (A. baumannii isolates [2]; isolate AMK-R-2): 16 µg/mL | MIC (A. baumannii isolates [2]; isolate AMK-R-3): 16 µg/mL | MIC (A. baumannii isolates [2]; isolate COL-R-1): 64 µg/mL | MIC (A. baumannii isolates [2]; isolate COL-R-2): 0.25 µg/mL | MIC (A. baumannii isolates [2]; isolate COL-R-3): 16 µg/mL | Time to kill 99.9% (A. baumannii isolates [2]; COL-R-1, 1xMIC): 3.6 h | Time to kill 99.9% (A. baumannii isolates [2]; COL-R-1, 4xMIC): 3.6 h | Time to kill 99.9% (A. baumannii isolates [2]; COL-R-2, 1xMIC): >24 h | Time to kill 99.9% (A. baumannii isolates [2]; COL-R-2, 4xMIC): 5.8 h | Time to kill 99.9% (A. baumannii isolates [2]; COL-R-3, 1xMIC): >24 h | Time to kill 99.9% (A. baumannii isolates [2]; COL-R-3, 4xMIC): 3.2 h | effect in time-kill studies when tested alone (A. baumannii isolates [2]; alone at 1× or 4×MIC): generally bactericidal | effect in time-kill study when tested alone (A. baumannii SAN strain): bactericidal | survivors (%) (A. baumannii SAN-94040; Study 1, 0 h after infection, doses as E210): 100% | No. of survivors (A. baumannii SAN-94040; [3]): 14 | survivors (%) (A. baumannii SAN-94040; [3]): 100% | No. of survivors (A. baumannii SAN-94040; [4]): 11 | survivors (%) (A. baumannii SAN-94040; [4]): 79% | No. of survivors (A. baumannii SAN-94040; [5]): 6 | survivors (%) (A. baumannii SAN-94040; [5]): 43% | No. of survivors (A. baumannii SAN-94040; [6]): 6 | survivors (%) (A. baumannii SAN-94040; [6]): 43% | No. of survivors (A. baumannii SAN-94040; Study 1, C3H/HeN mice, 0 h after SAN-94040 infection, compound (I) 200 mg/kg, amikacin 18 mg/kg, meropenem 50 mg/kg q 8 h I.P.): 14 | efficacy compared to the control group (A. baumannii SAN-94040; Study 1, survival): significant efficacy

— patent US20150065416A1, “NOVEL DRUG COMBINATION” (FAB PHARMA SAS, priority 2013, published 2015)
